Where two headings read alike, the source gives them in different places.
Assays:
μOR [1] = target: T1, μOR (Homo sapiens, UniProt P35372); assay: cell-based; type: cell-based
μOR [2] = target: T1, μOR; assay: cell-based; type: cell-based; remark: listed apart in the source
μOR [3] = target: T1, μOR; assay: cell-based; type: cell-based; conditions: for Emax: read-out: β-arr1 Emax % ± SEM
C57BL/6J mice [4] = conditions: mouse, in vivo
mouse [5] = conditions: in vivo
mouse [6] = conditions: in vivo; remark: listed apart in the source
mouse [7] = conditions: in vivo; remark: listed apart in the source
C57BL/6J mice [8] = conditions: mouse, in vivo; remark: listed apart in the source
C57BL/6J mice [9] = conditions: mouse, in vivo; remark: listed apart in the source

T1 sequence (P35372 whole entry): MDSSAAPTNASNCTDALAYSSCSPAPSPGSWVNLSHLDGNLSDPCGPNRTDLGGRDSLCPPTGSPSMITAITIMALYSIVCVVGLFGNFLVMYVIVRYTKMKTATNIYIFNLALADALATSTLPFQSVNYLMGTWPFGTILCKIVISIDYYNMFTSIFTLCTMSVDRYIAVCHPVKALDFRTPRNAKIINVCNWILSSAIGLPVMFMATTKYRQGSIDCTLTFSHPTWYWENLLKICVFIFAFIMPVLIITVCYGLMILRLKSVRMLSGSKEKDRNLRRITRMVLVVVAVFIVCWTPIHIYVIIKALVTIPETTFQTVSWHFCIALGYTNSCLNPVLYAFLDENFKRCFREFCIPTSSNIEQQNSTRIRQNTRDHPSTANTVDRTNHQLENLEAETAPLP

Row | SMILES | Gz Emax % ± SEM (μOR [1]) | Emax (μOR [1]; read-out: G0a Emax % ± SEM) | Emax (μOR [1]; read-out: G0b Emax % ± SEM) | Emax (μOR [1]; read-out: Gi2 Emax % ± SEM) | Emax (μOR [1]; read-out: Gi3 Emax % ± SEM) | Emax (μOR [1]; read-out: Gz Emax % ± SEM) | β-arr2 Emax % ± SEM (μOR [2]) | Emax (μOR [3]) | β-arrestin-2 recruitment, maximum value (μOR [2]) | β-arrestin-2 recruitment, median value (μOR [2]) | β-arrestin-2 recruitment, minimum value (μOR [2]) | β-arrestin-1 recruitment, maximum value (μOR [3]) | β-arrestin-1 recruitment, median value (μOR [3]) | β-arrestin-1 recruitment, minimum value (μOR [3]) | Emax (μOR [1]; read-out: Gi1 Emax % ± SEM) | also measured
1 | COc1ccc2c3c1O[C@H]1C(=O)CC[C@@]4(O)[C@@H](C2)N(C)CC[C@]314 [Oxycodone] | full agonist | 102 ± 5.2% | 110 ± 3.4% | 83 ± 5.7% | 75 ± 3.8% | 102 ± 4.9% | 80 ± 3.9% | 81 ± 7.9% | – | – | – | – | – | – | – | –
2 | CC[C@@H]1CN2CC[C@@]3(O)C(=Nc4cccc(OC)c43)[C@@H]2C[C@@H]1/C(=C\OC)C(=O)OC [7-OH, 7-hydroxymitragynine] | 73 ± 2.8% | – | – | – | – | – | – | – | 25.2% | −2.4% | −13.1% | 0.3% | −1.4% | −8.0% | – | G0a Emax % ± SEM (μOR [1]): 65 ± 4.9%; G0b Emax % ± SEM (μOR [1]): 56 ± 3.5%; Gi1 Emax % ± SEM (μOR [1]): 31 ± 4.9%; Gi2 Emax % ± SEM (μOR [1]): 53 ± 5.1%; Respiratory effect (C57BL/6J mice [4]; sc): respiratory depression similar to that caused by morphine
3 | CN1CC[C@]23c4c5ccc(O)c4O[C@H]2[C@@H](O)C=C[C@H]3[C@H]1C5 [Morphine] | – | – | – | – | – | – | – | – | – | – | – | – | – | – | – | Antinociception in writhing assay (mouse [5]): significant antinociception compared with vehicle or saline; Number of writhes over 15 min, maximum (mouse [5]): 32; Number of writhes over 15 min, median (mouse [5]): 0; Number of writhes over 15 min, minimum (mouse [5]): 0; Antinociception in formalin assay (mouse [6]): significant antinociception compared with vehicle or saline; Formalin assay response, maximum (mouse [6]): 95 s; Formalin assay response, median (mouse [6]): 7 s; Formalin assay response, minimum (mouse [6]): 1 s; Post-conditioning (post-CPP), maximum (mouse [7]): 819 s; Post-conditioning (post-CPP), median (mouse [7]): 154 s; Post-conditioning (post-CPP), minimum (mouse [7]): -299 s; Pre-conditioning (pre-CPP) difference in time on drug-paired side, minimum (mouse [7]): -542 s; Pre-conditioning (pre-CPP), maximum (mouse [7]): 413 s; Pre-conditioning (pre-CPP), median (mouse [7]): -23 s; Ambulations (locomotor effect) (C57BL/6J mice [8]): hyperlocomotion; Breath rates (C57BL/6J mice [4]): decrease; ED50 95% confidence interval (C57BL/6J mice [9]): 4.4 to 8.43 nmol; Median antinociceptive dose (ED50) (C57BL/6J mice [9]): 6.6 nmol
4 | C[C@@H](NC(=O)[C@@H](N)Cc1ccc(O)cc1)C(=O)NCC(=O)N(C)[C@@H](Cc1ccccc1)C(=O)NCCO [DAMGO] | – | – | – | – | – | – | – | – | 100% | 100% | 100% | 100% | 100% | 100% | – | –
5 | CC(C)=CCN1CCC2(C)c3cc(O)ccc3CC1C2C (stereo not drawn) [Pentazocine] | full agonist | 89 ± 4% | 89 ± 3.2% | 78 ± 3.8% | 73 ± 2.3% | 103 ± 1.5% | – | 7 ± 4.51% | – | – | – | – | – | – | 75 ± 1.8% | Emax (μOR [2]; read-out: β-arr2 Emax % ± SEM): 13 ± 4.04%
6 | COc1ccsc1CNCC[C@@]1(c2ccccn2)CCOC2(CCCC2)C1 [TRV130] | – | 67 ± 5.3% | 76 ± 4.4% | 58 ± 4.2% | 45 ± 3.3% | 98 ± 2.2% | 26 ± 5.9% | – | – | – | – | – | – | – | 58 ± 3.8% | –
